# Article PMC10235067, “Increased renal elimination of endogenous and synthetic pyrimidine nucleosides in concentrative nucleoside transporter 1 deficient mice” (Nature Communications, 2023)
# Where “and” joins values, the source holds several entries; their conditions need not be identical. Identical values can stand only once. Counter-ions that a name gives are not always drawn.
# Experiments:
# [1] = Gemcitabine urine pharmacokinetics (renal excretion) in Slc28a1+/+ and Slc28a1-/- mice
# Experimental: THU was added to the mouse urine samples upon collection and frozen until analysis. […] Five microliters of the diluted samples were transferred to a 96-well autosampler plate then 10 µL of internal standard mixture was added and mixed. […] The plate was then transferred to the 4 °C autosampler for analysis.
# The chromatographic separation was performed on a Thermo Accucore aQ 2.6 µm, 100 ×2.1 mm column at 30 °C using a gradient with a 10 µL injection volume. The mobiles phases were 1 mM ammonium acetate in deionized water pH 6.8 and acetonitrile. The total run time was 5.5 min. […] The LC–MS/MS analysis was conducted on a Thermo Vanquish UHPLC with a TSQ Quantiva mass spectrometer equipped with an electrospray ionization source.
# [2] = cited from earlier work
# [3] = tested on: CNT1; details: read-out: Km (affinity for CNT1); cited from earlier work
# [4] = Gemcitabine plasma pharmacokinetics in Slc28a1+/+ and Slc28a1-/- mice; details: Gemcitabine in plasma, KO mice, iv gemcitabine 50mg/kg, per mouse
# [5] = mouse, urine, intravenous, 50 mg/kg, Cp (Gemcitabine), Figure 5 G, H, I, KO mice, individual mice
# [6] = mouse, urine, intravenous, 50 mg/kg, Cp (Gemcitabine), Figure 5 G, H, I, WT mice, individual mice
structure (smiles),measurement,setting,value
"Nc1ccn([C@@H]2O[C@H](CO)[C@@H](O)C2(F)F)c(=O)n1 [dFdC, Gemcitabine hydrochloride, reference compound]",Cp (Gemcitabine),"[1]; Figure 5 G, H, I, WT mice, 240 Minutes, individual mice",394.084 µg/mL and 419.478 µg/mL and 409.47 µg/mL and 387.436 µg/mL and 378.97 µg/mL
same,Dose in Urine (% of total dose administered),"[1]; Slc28a1+/+ mice, single i.v. dFdC 50 mg/kg",7.53%
same,Dose in Urine (% of total dose administered),"[1]; Slc28a1-/- mice, single i.v. dFdC 50 mg/kg",13.73%
same,concentration at 5 min,[1]; [5],690 µg/mL
same,concentration at 30 min,[1]; [5],995 µg/mL
same,concentration at 60 min,[1]; [5],801 µg/mL
same,concentration at 120 min,[1]; [5],977 µg/mL
same,concentration at 5 min,[1]; [6],447 µg/mL
same,concentration at 10 min,"[1]; mouse, urine, intravenous, 50 mg/kg, Cp (Gemcitabine), Figure 5 G, H, I, WT mice, 10 Minutes, individual mice",628 µg/mL
same,concentration at 15 min,"[1]; mouse, urine, intravenous, 50 mg/kg, Cp (Gemcitabine), Figure 5 G, H, I, WT mice, 15 Minutes, individual mice",859 µg/mL
same,concentration at 30 min,[1]; [6],725 µg/mL
same,concentration at 60 min,[1]; [6],864 µg/mL
same,concentration at 120 min,[1]; [6],403 µg/mL
same,concentration at 240 min,"[1]; mouse, urine, intravenous, 50 mg/kg, Cp (Gemcitabine), Figure 5 G, H, I, WT mice, 240 Minutes, individual mice",400 µg/mL
same,renal clearance (CLr) in Slc28a1-/- mice higher than in Slc28a1+/+ mice,"[1]; non-compartmentally calculated, single i.v. dFdC 50 mg/kg",126.63%
same,Log P,[2],−1.5
same,Km,[3],12 to 36 µM
same,AUCINF_D_obs,[4],916.304 kg·ng·min/mL/mg and 1339.88 kg·ng·min/mL/mg and 778.001 kg·ng·min/mL/mg and 1050.65 kg·ng·min/mL/mg and 1326.68 kg·ng·min/mL/mg and 1607.46 kg·ng·min/mL/mg
same,AUCINF_D_pred,[4],916.913 kg·ng·min/mL/mg and 1340.31 kg·ng·min/mL/mg and 775.108 kg·ng·min/mL/mg and 1031 kg·ng·min/mL/mg and 1323.42 kg·ng·min/mL/mg and 1604.92 kg·ng·min/mL/mg
same,AUCINF_obs,[4],45815.2 ng·min/mL and 66994.2 ng·min/mL and 38900.1 ng·min/mL and 52532.6 ng·min/mL and 66334.2 ng·min/mL and 80373 ng·min/mL
same,AUCINF_pred,[4],45845.6 ng·min/mL and 67015.6 ng·min/mL and 38755.4 ng·min/mL and 51550 ng·min/mL and 66171.1 ng·min/mL and 80246 ng·min/mL
same,AUC_%Back_Ext_obs,[4],23.4974% and 21.9481% and 43.9469% and 42.6077% and 48.9911% and 43.8068%
same,AUC_%Back_Ext_pred,[4],23.4818% and 21.941% and 44.1109% and 43.4198% and 49.1119% and 43.8762%
same,AUC_%Extrap_obs,[4],23.7% and 27.5311% and 0.9315% and 2.802% and 0.4504% and 6.001%
same,AUC_%Extrap_pred,[4],23.7507% and 27.5543% and 0.5618% and 0.9493% and 0.2051% and 5.852%
same,AUCall,[4],36446.4 ng·min/mL and 50206 ng·min/mL and 39423.8 ng·min/mL and 51060.7 ng·min/mL and 66882.1 ng·min/mL and 76930.3 ng·min/mL
same,AUClast,[4],34957 ng·min/mL and 48549.9 ng·min/mL and 38537.7 ng·min/mL and 51060.7 ng·min/mL and 66035.4 ng·min/mL and 75549.7 ng·min/mL
same,AUClast_D,[4],699.14 kg·ng·min/mL/mg and 970.999 kg·ng·min/mL/mg and 770.754 kg·ng·min/mL/mg and 1021.21 kg·ng·min/mL/mg and 1320.71 kg·ng·min/mL/mg and 1510.99 kg·ng·min/mL/mg
same,AUMCINF_obs,[4],6487547 min*min*ng/mL and 15108021 min*min*ng/mL and 317047 min*min*ng/mL and 1417805 min*min*ng/mL and 460548 min*min*ng/mL and 2237155 min*min*ng/mL
same,AUMCINF_pred,[4],6504522 min*min*ng/mL and 15124898 min*min*ng/mL and 306594 min*min*ng/mL and 1123964 min*min*ng/mL and 449037 min*min*ng/mL and 2195280 min*min*ng/mL
same,AUMC_%Extrap_obs,[4],93.2939% and 96.2322% and 8.26% and 31.0459% and 4.579% and 71.0667%
same,AUMC_%Extrap_pred,[4],93.3114% and 96.2364% and 5.1318% and 13.0191% and 2.133% and 70.5148%
same,AUMClast,[4],435061 min*min*ng/mL and 569242 min*min*ng/mL and 290860 min*min*ng/mL and 977634 min*min*ng/mL and 439460 min*min*ng/mL and 647283 min*min*ng/mL
same,C0,[4],2226.24 ng/mL and 3096.19 ng/mL and 4174.86 ng/mL and 5972.33 ng/mL and 9031.34 ng/mL and 9852.43 ng/mL
same,Cl_obs,[4],1091.34 mL/min/kg and 746.334 mL/min/kg and 1285.35 mL/min/kg and 951.789 mL/min/kg and 753.759 mL/min/kg and 622.099 mL/min/kg
